The test system of data set [1] is Calf DNA. Briefly: DNA affinity by Isothermal Titration Calorimetry (ITC), Calf DNA. The format is binding. Also noted: key: *^1: No measurable binding via ITC. How it is done: (§1) DIP cytotoxicity was determined by a tetrazolium dye-based microtitration assay. DNA affinity measurements of DIPs were undertaken using Isothermal Titration Calorimetry (ITC).
Data set [2] relates to Cisplatin resistant cell line MCP1. The experiment in a line: growth (tetrazolium dye-based microtitration) cytotoxicity assay, MCP1. The format is cell-based, human. As to conditions: for IC50: Homo sapiens, cisplatin-resistant line, 24 hours drug exposure, 3 day recovery, mean±SEM of triplicate plates; for RF2: rapport of the IC50 between A2780 and MCP1, the lower RF the better. The protocol: (§2) Compounds were tested in a growth assay with a 24 hours drug exposure and a 3 day recovery period. Cell lines used were human ovarian tumour cell line A2780 and 2 Cisplatin resistant derivatives cell lines A27080/cp70 and MCP1. IC50 is the concentration of drug required to reduce the surviving cell number to 50% of that of the control untreated cells. Results are from one experiment and are the mean±SEM of the triplicate plates.
as §1

Data set [3] relates to DNA. The experiment in a line: Viscosimetry analysis (DNA intercalation). As to conditions: preliminary result.
Data set [4] has as its system Salmon DNA. Briefly: DNA affinity by Isothermal Titration Calorimetry (ITC), Salmon DNA. Also noted: key to Ka Salmon DNA: *^1: No measurable binding via ITC. The format is binding. How it is done:
as §1

The subject of data set [5] is human ovarian tumour cell line A2780. The experiment in a line: growth (tetrazolium dye-based microtitration) cytotoxicity assay, A2780. The format is cell-based. The following applies: for IC50: Homo sapiens, A2780, cisplatin-sensitive line, 24 hours drug exposure, 3 day recovery, mean±SEM of triplicate plates. How it is done: as §2, §1
For data set [6], the system named is Cisplatin resistant cell line A2780/cp70. Briefly: growth (tetrazolium dye-based microtitration) cytotoxicity assay, A2780/cp70. The format is cell-based, human. As to conditions: for IC50: Homo sapiens, A2780/CP70, cisplatin-resistant line, 24 hours drug exposure, 3 day recovery, mean±SEM of triplicate plates; for RF1: rapport of the IC50 between A2780 and A2780/cp70, the lower RF the better. How it is done:
as §2, §1

The results in this text go back to patent US7947703B2, “Phenanthridinium derivatives as DNA binding agents” (University Court of the University of Glasgow, priority 2003, dated 2011).

Marks after values point to notes of the source that are not given here.

As for `c1ccc2c(c1)c1[n+](c3ccccc23)CCN1` [AP5-94, 2,3-Dihydro-1H-imidazo[1,2-f]phenanthridin-4-ylium bromide], the “Ka Calf DNA” value in data set [1] is reported as 2.06 ± 907 M^−1 (10^4). Moreover, in data set [2], the “more active on MCP1 than A2780” value is 50%, half-maximal inhibition (IC50) was put at 0.82 ± 0.09 µM and the RF2 stood at 0.5. Moreover, the “viscosity of DNA (in words)” value in data set [3] is recorded as “increase of viscosity similar to the one obtained with the DNA intercalator reference ethidium bromide”. Further, in data set [4], the “Ka Salmon DNA” value is recorded as 2.56 ± 802.6 M^−1 (10^4). Further, in data set [5], the “cytotoxicity on cisplatin-sensitive cell line A2780 (in words)” value is recorded as “high cytotoxicity” and the IC50 worked out at 1.56 ± 0.18 µM. For the same compound, in data set [6], the “less active on A2780/cp70 than on A2780” value worked out at 50%, the IC50 came out at 2.3 ± 0.15 µM and the RF1 was 1.5.
On to `COc1ccc(CSCC[n+]2cc3ccccc3c3ccccc32)cc1.[Br-]`, for which the melting point lay in the range of 182 to 183 °C.
As to `CC(C)N1CC[n+]2c1c1ccccc1c1ccccc12.[Br-]`, the melting point is 250 to 251 °C (dec.).
Same read-out and setting: to `[Br-].c1ccc2c(c1)c[n+](CCN1CCCCC1)c1ccccc21` belongs 167 to 168 °C.
Still for that read-out and setting: to `[Br-].[Br-].c1ccc2c(c1)c[n+](CCN1CCN(CC[n+]3cc4ccccc4c4ccccc43)CC1)c1ccccc21` belongs 260 to 261 °C.
On to `COc1ccc(CN2CC[n+]3c2ccc2ccccc23)cc1` [AP4-44, 3-(4-Methoxy-benzyl)-2,3-dihydro-1H-imidazo[1,2-a]quinolin-10-ylium bromide], for which, in data set [1], the “Ka Calf DNA” value is given as “*^1”. In data set [2], this compound gave a 50% inhibitory concentration (IC50) of 11 ± 1 µM and an RF2 of 0.4. The “Ka Salmon DNA” value in data set [4] was “*^1”. Also, the “DNA affinity (in words)” value in data set [4] (DNA source not given) is listed as “cancel any measurable DNA affinity”. Further, the concentration for half-maximal inhibition (IC50) in data set [5] was determined as 30.9 ± 2.5 µM. Besides, the “cytotoxicity (in words)” value in data set [5] (overall statement across A2780, A2780/cp70 and MCP1) is given as “much less cytotoxicity”. In data set [6], half-maximal inhibition (IC50) required 12.6 ± 0.6 µM and the RF1 is 0.4.
Take `COc1ccc([C@@H](C)N2CC[n+]3c2c2ccccc2c2ccccc23)cc1` [AP6-96, 1-[1-(4-Methoxy-phenyl)-ethyl]-2,3-dihydro-1H-imidazo[1,2-f]phenanthridin-4-ylium bromide]: the “Ka Calf DNA” value in data set [1] is 4.14 ± 2685 M^−1 (10^4). Further, in data set [2], the half-maximal inhibitory concentration (IC50) stood at 0.53 ± 0.04 µM and the RF2 is given as 0.5. The “Ka Salmon DNA” value in data set [4] is listed as 5.17 ± 1948 M^−1 (10^4). Further, half-maximal inhibition in data set [5] (IC50) was put at 1.03 ± 0.06 µM. In data set [6], the IC50 was 1.15 ± 0.07 µM and the RF1 worked out at 1.1.
